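Tested at 5 concentrations; 48 h exposure; 96-well plates; endpoints linearly interpolated, else capped at highest concentration. At the GI50, growth is halved.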 Calls of active or inactive are those of the source. No stated cut-off is given here; in the data, active = GI50 up to about 1.1 µM and inactive = higher.
Assays:
Assay in all cases: NCI anticancer screen, dose series, 48 h
OVCAR-5 = tested on: OVCAR-5
DU-145 = tested on: DU-145
OVCAR-3 = tested on: OVCAR-3
SK-MEL-2 = tested on: SK-MEL-2
MDA-MB-231 = tested on: MDA-MB-231
786-0 = tested on: 786-0
SF-539 = tested on: SF-539
NCI-H226 = tested on: NCI-H226
COLO 205 = tested on: COLO 205
MDA-MB-435 = tested on: MDA-MB-435
KM12 = tested on: KM12
SNB-75 = tested on: SNB-75
OVCAR-8 = tested on: OVCAR-8
CCRF-CEM = tested on: CCRF-CEM
NCI/ADR-RES = tested on: NCI/ADR-RES
SK-OV-3 = tested on: SK-OV-3
UACC-257 = tested on: UACC-257
HCC 2998 = tested on: HCC 2998
SK-MEL-5 = tested on: SK-MEL-5

Compound	GI50 (OVCAR-5)	GI50 (DU-145)	GI50 (OVCAR-3)	GI50 (SK-MEL-2)	GI50 (MDA-MB-231)	GI50 (786-0)	GI50 (SF-539)	GI50 (NCI-H226)	GI50 (COLO 205)	GI50 (MDA-MB-435)	GI50 (KM12)	GI50 (SNB-75)	GI50 (OVCAR-8)	GI50 (CCRF-CEM)	GI50 (NCI/ADR-RES)	GI50 (SK-OV-3)	GI50 (UACC-257)	GI50 (HCC 2998)	GI50 (SK-MEL-5)
CCOC(=O)CCc1c(C(=O)OCC)[nH]c(/C=C2\NC(=O)C(C)=C2CC)c1C	25.6 µM (inactive)	19.3 µM (inactive)	18.5 µM (inactive)	18.1 µM (inactive)	19.8 µM (inactive)	14.5 µM (inactive)	27.9 µM (inactive)	36.5 µM (inactive)	> 100 µM (inactive)	> 100 µM (inactive)	> 100 µM (inactive)	13.5 µM (inactive)	5.83 µM (inactive)	> 100 µM (inactive)	12.9 µM (inactive)	22 µM (inactive)	–	–	–
OCC(O)COc1c(Cl)ccc(Cl)c1Cl (configuration not stated)	> 100 µM (inactive)	–	> 100 µM (inactive)	> 100 µM (inactive)	–	> 100 µM (inactive)	> 100 µM (inactive)	> 100 µM (inactive)	> 100 µM (inactive)	–	> 100 µM (inactive)	> 100 µM (inactive)	> 100 µM (inactive)	> 100 µM (inactive)	–	> 100 µM (inactive)	> 100 µM (inactive)	> 100 µM (inactive)	> 100 µM (inactive)
COc1cc2c(c(OC)c1O)-c1ccc(SC)c(=O)cc1C(NC(C)=O)CC2 (configuration not stated)	4.83 µM (inactive)	–	< 0.01 µM (active)	< 0.01 µM (active)	–	0.0545 µM (active)	< 0.01 µM (active)	0.532 µM (active)	< 0.01 µM (active)	–	< 0.01 µM (active)	< 0.01 µM (active)	0.0307 µM (active)	< 0.01 µM (active)	–	0.215 µM (active)	2.24 µM (inactive)	0.0261 µM (active)	< 0.01 µM (active)
CN1C(=O)N(C)C2(O)c3ccccc3C(=O)C12O (configuration not stated)	> 100 µM (inactive)	–	> 100 µM (inactive)	> 100 µM (inactive)	–	> 100 µM (inactive)	> 100 µM (inactive)	> 100 µM (inactive)	> 100 µM (inactive)	–	> 100 µM (inactive)	> 100 µM (inactive)	> 100 µM (inactive)	> 100 µM (inactive)	–	> 100 µM (inactive)	> 100 µM (inactive)	> 100 µM (inactive)	> 100 µM (inactive)
CNC(=O)OCc1nc(SC2CCCCO2)n(C)c1COC(=O)NC (configuration not stated)	> 100 µM (inactive)	–	> 100 µM (inactive)	> 100 µM (inactive)	–	> 100 µM (inactive)	> 100 µM (inactive)	> 100 µM (inactive)	> 100 µM (inactive)	–	> 100 µM (inactive)	> 100 µM (inactive)	> 100 µM (inactive)	> 100 µM (inactive)	> 100 µM (inactive)	> 100 µM (inactive)	> 100 µM (inactive)	> 100 µM (inactive)	> 100 µM (inactive)
CN1CCC23c4c5ccc(O)c4OC2C(=NN=C2CCC4(O)C6Cc7ccc(O)c8c7C4(CCN6C)C2O8)CCC3(O)C1C5 (configuration not stated)	> 100 µM (inactive)	–	> 100 µM (inactive)	> 100 µM (inactive)	–	> 100 µM (inactive)	> 100 µM (inactive)	> 100 µM (inactive)	> 100 µM (inactive)	–	> 100 µM (inactive)	> 100 µM (inactive)	> 100 µM (inactive)	> 100 µM (inactive)	–	> 100 µM (inactive)	> 100 µM (inactive)	> 100 µM (inactive)	> 100 µM (inactive)
COC(=O)C(=O)C(C(=O)C=C(C)C)C(=O)C(=O)Nc1nc2ccc([N+](=O)[O-])cc2s1 (configuration not stated)	> 100 µM (inactive)	–	44.6 µM (inactive)	49.5 µM (inactive)	–	> 100 µM (inactive)	36.6 µM (inactive)	46.1 µM (inactive)	> 100 µM (inactive)	–	98.9 µM (inactive)	21.4 µM (inactive)	> 100 µM (inactive)	38.7 µM (inactive)	–	39.9 µM (inactive)	79.8 µM (inactive)	46.6 µM (inactive)	35.7 µM (inactive)
